Measured values: article PMC6254336, “Structural and functional characterization of IdiA/FutA (Tery_3377), an iron-binding protein from the ocean diazotroph Trichodesmium erythraeum” (The Journal of Biological Chemistry, 2018)

Target: T1, Tery_3377 (IdiA/FutA) (Trichodesmium erythraeum, UniProt Q10Z45)
T1 construct: mature protein, predicted signal peptide (residues 1-31) removed, C-terminal His6 tag, pET21a(+), E. coli BL21(DE3); two monomers per asymmetric unit
Test: X-ray crystal structure, […] Å
Details: two citrates bound in the substrate-binding cleft together with one Fe3+ that they coordinate, about 7 Å from the empty iron site; protein citrate-treated before crystallisation; carboxylic acids mix

T1 sequence (Q10Z45 entry or part of it): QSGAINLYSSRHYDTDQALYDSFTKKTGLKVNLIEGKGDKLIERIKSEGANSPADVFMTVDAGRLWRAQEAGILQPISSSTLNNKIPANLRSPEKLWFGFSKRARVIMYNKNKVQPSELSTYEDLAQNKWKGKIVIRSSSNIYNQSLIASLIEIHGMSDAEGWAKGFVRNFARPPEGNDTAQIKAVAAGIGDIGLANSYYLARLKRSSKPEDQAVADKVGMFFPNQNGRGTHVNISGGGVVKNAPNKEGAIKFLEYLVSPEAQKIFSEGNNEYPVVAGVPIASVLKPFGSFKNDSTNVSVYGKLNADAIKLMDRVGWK

Structure (SMILES): O=C(O)CC(O)(CC(=O)O)C(=O)O [citrate]
- X-ray crystal structure, 1.2 Å: traps the citrate molecule with bound iron in the substrate-binding cleft
